Measurements as given in PMC9007462 (Journal of Medicinal Chemistry, 2022).

Assays:
Human ALDH3A1 [1] = molecular target: T1, Human ALDH3A1 (Homo sapiens, UniProt P30838); experiment: DEAB analogues as substrates of ALDH3A1 (substrate activity and kinetics); type: biochemical; details: for ALDH3A1 substrate activity: 10 μM compound as substrate, relative to activity with 10 μM 4-NBA (Figure S2)
T1 construct: made in house
T1 sequence (P30838 1-453): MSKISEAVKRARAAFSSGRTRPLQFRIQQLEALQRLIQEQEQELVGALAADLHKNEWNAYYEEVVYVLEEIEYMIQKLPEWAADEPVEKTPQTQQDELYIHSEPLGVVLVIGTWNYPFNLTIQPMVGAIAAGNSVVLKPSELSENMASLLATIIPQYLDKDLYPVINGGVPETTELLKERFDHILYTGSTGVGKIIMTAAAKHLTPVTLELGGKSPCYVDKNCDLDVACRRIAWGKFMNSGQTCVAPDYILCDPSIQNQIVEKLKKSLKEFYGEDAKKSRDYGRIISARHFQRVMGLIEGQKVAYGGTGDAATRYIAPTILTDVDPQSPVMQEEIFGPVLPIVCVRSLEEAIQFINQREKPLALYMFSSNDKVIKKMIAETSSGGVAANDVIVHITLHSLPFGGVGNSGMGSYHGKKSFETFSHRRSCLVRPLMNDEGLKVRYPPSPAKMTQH
Protocol: Human ALDH1A1, ALDH1A3, and ALDH3A1 were cloned and recombinantly expressed from the pET-30 Xa/LIC vector. Protein purification was achieved by affinity chromatography on a nickel-charged chelating Sepharose Fast Flow 5-mL column (His Trap column, Cytiva), which specifically binds the protein due to its N-terminal (His)6 tag, using an ÄKTA FPLC system (Cytiva), as previously described.[55] Enzymes including the His tag were stored at −80 °C in 20 mM Tris/HCl and 0.5 M NaCl, pH 8.0, until use. Reaction buffers were as follows: ALDH1A1 was assayed in 50 mM HEPES, 0.5 mM EDTA, and 0.5 mM DTT, pH 8.0; ALDH1A3 was assayed in 50 mM HEPES, 30 mM MgCl2, and 5 mM DTT, pH 8.0; and ALDH3A1 was assayed in 50 mM Tris–HCl and 5 mM DTT, pH 8.0. Activity under standard conditions was measured fluorimetrically at 25 °C using a Cary Eclipse (Varian) fluorimeter to follow the purification procedure and to check the enzyme concentration before each kinetic experiment. The fluorescence of NADH was characterized at 460 nm with excitation at 340 nm, and 5 μM NAD(P)H was added as an internal standard to obtain the absolute reaction rates.[55] Standard activity was measured at saturating concentrations of substrate using 30 μM hexanal (ALDH1A1), 250 μM hexanal (ALDH1A3), or 250 μM 4-NBA (ALDH3A1). NAD^+ was 500 μM for ALDH1A1 and ALDH1A3, and NADP^+ was 1 mM for ALDH3A1.
According to their structure with a carbonyl group, compounds were tested for their substrate properties against ALDH1A1, ALDH1A3, and ALDH3A1. […] Results are expressed as the percentage of activity at 10 μM versus the activity at 10 μM of their standard substrate (hexanal or 4-NBA). Values are expressed as the mean ± SE.
To calculate the Km value of compound 18 as a substrate for ALDH3A1, several concentrations of compound 18 were used. Experimental values were fitted to the adaptation of the Michaelis–Menten equation for substrate inhibition [drawing 1] and shown as the mean ± SE.

PC3 = experiment: MTT chemosensitivity assay, PC3; type: cell-based, human; details: Homo sapiens, PC-3, 96 h exposure, ± SD, at least three independent experiments
Human ALDH3A1 [2] = molecular target: T1, Human ALDH3A1; experiment: ALDH3A1 inhibition, IC50, Ki and type of inhibition; type: biochemical; details: for IC50: 31 μM 4-NBA as substrate

Row | Ksi as ALDH3A1 substrate (Human ALDH3A1 [1]; fit to substrate inhibition equation, mean ± SE) | Km (Human ALDH3A1 [1]; mean ± SE) | kcat as ALDH3A1 substrate (Human ALDH3A1 [1]; mean ± SE) | type of inhibition ALDH3A1 (Human ALDH3A1 [2]; 4-NBA as substrate) | Ki (Human ALDH3A1 [2]; 4-NBA as substrate, fit to competitive inhibition equation, mean ± SE) | IC50 with versus without preincubation with the cofactor NADP+ (Human ALDH3A1 [2]; 5-min preincubation) | SMILES | ALDH3A1 substrate activity (Human ALDH3A1 [1]) | IC50 (PC3) | IC50 (Human ALDH3A1 [2]; mean ± SE)
1 | 113 ± 25 µM | 2.82 ± 0.35 µM | 13.4 ± 0.7 min^–1 | competitive | 0.3 ± 0.06 µM | no differences were observed | CCCN(CCC)c1ccc(C=O)cc1[N+](=O)[O-] [Compound 18, 4-(Dipropylamino)-3-Nitrobenzaldehyde] | 4.21% | 98 ± 12 µM | 1.61 ± 0.17 µM
2 |  |  |  |  |  |  | CCCN(CCC)c1ccc(C=O)cc1Br [Compound 14, 3-Bromo-4-(dipropylamino)benzaldehyde] | lower than 5% | 47 ± 6 µM | 8 ± 1.56 µM
